Literature values in paper PMC10060569 (Frontiers in Pharmacology, 2023).

Settings: cited from earlier work

Compound: O=C(O)Cc1ccccc1Nc1c(Cl)cccc1Cl [Diclofenac, diclofenac]
- suspected cases of ageusia, dysgeusia, or taste disorders reported in the European Union (EudraVigilance up to 28/11/2022, ref http://www.adrreports.eu/de/): more than 110 cases
- patients reporting an impaired taste sensation (prospective randomized clinical trial, postoperative administration, ref Attri et al., 2015): 58%
